Test results as given in patent publication US9809623B2, “α4β7 peptide monomer and dimer antagonists” (Protagonist Therapeutics, Inc., priority 2014, dated 2017).
Where two headings read alike, the source gives them in different places. Numbered stars: 1 amine (or outer) side, 2 acyl side, 3 side chain; on linkers, the order of the positions; unused ones are H or OH. Bridge positions count the residues as written; N and C are the ends. Square brackets hold non-standard residues; d marks the D form. Peptide text beside a SMILES is read from it. I, II: the chains in the order shown. Phe(4-COOH) = N[C@@H](Cc1ccc(C(=O)O)cc1)C(=O)O; 1Nal = N[C@@H](Cc1cccc2ccccc12)C(=O)O; Diglycolyl = O=C(COCC(=O)[*:2])[*:1]; NMeR = CN[C@@H](CCCNC(=N)N)C(=O)O; β3hE = N[C@@H](CCC(=O)O)CC(=O)O; NMeK = CN[C@@H](CCCCN)C(=O)O; Pen = CC(C)(S)[C@H](N)C(=O)O; dNMeK = CN[C@H](CCCCN)C(=O)O

What was measured:
[1] = molecular target: α4β7 (Homo sapiens, UniProt P13612+P26010); assay: α4β7-MAdCAM Cell Adhesion Assay (RPMI 8866 human cells); type: cell-based; set-up: host or cells: RPMI 8866 human B lymphoblastoid cells
Procedure, shortened: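 Adhesion read-out: MTT absorbance at 570 nm minus no-cell wells, after three washes. Plates coated with rh MAdCAM-1/Fc received peptide dilutions plus 200,000 RPMI 8866 cells in Mn2+ (1 mM)-supplemented DMEM, 0.1% BSA, HEPES pH 7, incubated 30-45 min, 37 °C.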

[2] = Simulated Intestinal Fluid (SIF) Stability Assay; type: in vitro ADME, porcine; conditions: pig, simulated intestinal fluid (SIF) with 1% porcine pancreatin
Procedure, shortened: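 Intestinal stability: percent peptide remaining over time, by LC-MS/MS peak-area ratio to internal standard, fitted to first-order decay for half-life. Conditions: 22 μM peptide, 1% pancreatin in pH 6.5 blank FASSIF, 37 °C.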

[3] = molecular target: T1, α4β1 (Homo sapiens, UniProt P05556+P13612, DEL729-798); assay: α4β1-VCAM Competition ELISA; type: binding
T1 construct: purchased R&D Systems 5668-A4
Procedure, shortened: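 ELISA plates were coated with VCAM-1 Fc at 400 ng/well. Peptide dilutions (highest final 100 μM) and 60 nM α4β1 were incubated 2 h at 37 °C in pH 7.6 Tris buffer containing 1 mM Mn2+ or Mg2+. Integrin retained on the plate was detected by 9F10 antibody, then HRP secondary, with TMB absorbance at 450 nm.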

[4] = Table 3-B, Potency (α4β7), range classes, read-out: α4β7 cell (Hu) IC50
[5] = pH 6.5, Table 3-B, > means experiment was stopped at that time and half life was not reached, read-out: Stabilty SIF t1/2
[6] = Table 3-B, Selectivity (α4β1), range classes, read-out: α4β1 ELISA IC50
[7] = Table 4-B, read-out: Cell Adhesion α4β7 IC50
[8] = pH 6.5, Table 4-C, t1/2, > means assay stopped at that time, read-out: SIF (porcine) Min
[9] = Table 4-B, read-out: ELISA_α4β1 IC50

T1 sequence (P13612 34-977 limits assumed, stated change not applied): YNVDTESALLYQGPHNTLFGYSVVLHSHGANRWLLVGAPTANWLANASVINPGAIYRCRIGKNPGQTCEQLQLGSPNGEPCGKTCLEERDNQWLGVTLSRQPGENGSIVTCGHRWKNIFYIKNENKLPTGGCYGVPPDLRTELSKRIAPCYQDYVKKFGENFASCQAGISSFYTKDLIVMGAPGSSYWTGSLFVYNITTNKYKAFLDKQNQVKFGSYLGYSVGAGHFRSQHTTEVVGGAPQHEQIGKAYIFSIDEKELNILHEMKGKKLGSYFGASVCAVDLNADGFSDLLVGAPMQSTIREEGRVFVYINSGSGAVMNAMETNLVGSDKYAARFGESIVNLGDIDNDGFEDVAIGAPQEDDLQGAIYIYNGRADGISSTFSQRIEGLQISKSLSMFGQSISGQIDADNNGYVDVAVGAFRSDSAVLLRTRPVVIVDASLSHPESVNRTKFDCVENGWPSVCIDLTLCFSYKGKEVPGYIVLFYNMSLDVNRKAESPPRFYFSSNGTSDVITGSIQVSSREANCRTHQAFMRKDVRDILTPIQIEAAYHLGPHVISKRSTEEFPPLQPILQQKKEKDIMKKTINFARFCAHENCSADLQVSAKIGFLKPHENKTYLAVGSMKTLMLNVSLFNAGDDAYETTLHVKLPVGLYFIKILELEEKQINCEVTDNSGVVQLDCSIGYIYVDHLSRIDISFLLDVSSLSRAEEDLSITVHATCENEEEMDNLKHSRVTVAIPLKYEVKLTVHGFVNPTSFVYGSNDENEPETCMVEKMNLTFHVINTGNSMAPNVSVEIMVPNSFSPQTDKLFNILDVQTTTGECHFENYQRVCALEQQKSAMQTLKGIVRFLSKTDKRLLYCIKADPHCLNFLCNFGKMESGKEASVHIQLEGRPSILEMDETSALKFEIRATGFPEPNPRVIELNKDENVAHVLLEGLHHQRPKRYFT
T1 sequence (P05556 21-728 limits assumed, stated change not applied): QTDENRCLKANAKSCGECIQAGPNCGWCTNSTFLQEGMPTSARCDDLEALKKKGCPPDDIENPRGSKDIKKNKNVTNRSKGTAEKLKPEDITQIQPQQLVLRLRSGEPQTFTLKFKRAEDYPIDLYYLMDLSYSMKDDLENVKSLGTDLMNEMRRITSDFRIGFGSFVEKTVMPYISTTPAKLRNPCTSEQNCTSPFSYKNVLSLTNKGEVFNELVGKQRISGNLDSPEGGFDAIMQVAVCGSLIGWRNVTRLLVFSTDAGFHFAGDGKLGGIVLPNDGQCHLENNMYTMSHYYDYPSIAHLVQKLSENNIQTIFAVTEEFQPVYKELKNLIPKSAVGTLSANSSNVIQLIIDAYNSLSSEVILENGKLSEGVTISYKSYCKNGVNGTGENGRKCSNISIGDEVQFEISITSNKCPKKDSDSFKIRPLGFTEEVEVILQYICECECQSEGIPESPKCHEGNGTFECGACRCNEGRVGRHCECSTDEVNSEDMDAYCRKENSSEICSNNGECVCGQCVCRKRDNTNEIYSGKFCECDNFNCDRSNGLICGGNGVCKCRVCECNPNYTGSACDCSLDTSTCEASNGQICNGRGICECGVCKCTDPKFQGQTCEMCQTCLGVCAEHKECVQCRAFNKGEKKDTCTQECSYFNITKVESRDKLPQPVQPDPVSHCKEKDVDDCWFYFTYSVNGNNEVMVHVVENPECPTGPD
Sequence of α4β7 (P13612 34-1032): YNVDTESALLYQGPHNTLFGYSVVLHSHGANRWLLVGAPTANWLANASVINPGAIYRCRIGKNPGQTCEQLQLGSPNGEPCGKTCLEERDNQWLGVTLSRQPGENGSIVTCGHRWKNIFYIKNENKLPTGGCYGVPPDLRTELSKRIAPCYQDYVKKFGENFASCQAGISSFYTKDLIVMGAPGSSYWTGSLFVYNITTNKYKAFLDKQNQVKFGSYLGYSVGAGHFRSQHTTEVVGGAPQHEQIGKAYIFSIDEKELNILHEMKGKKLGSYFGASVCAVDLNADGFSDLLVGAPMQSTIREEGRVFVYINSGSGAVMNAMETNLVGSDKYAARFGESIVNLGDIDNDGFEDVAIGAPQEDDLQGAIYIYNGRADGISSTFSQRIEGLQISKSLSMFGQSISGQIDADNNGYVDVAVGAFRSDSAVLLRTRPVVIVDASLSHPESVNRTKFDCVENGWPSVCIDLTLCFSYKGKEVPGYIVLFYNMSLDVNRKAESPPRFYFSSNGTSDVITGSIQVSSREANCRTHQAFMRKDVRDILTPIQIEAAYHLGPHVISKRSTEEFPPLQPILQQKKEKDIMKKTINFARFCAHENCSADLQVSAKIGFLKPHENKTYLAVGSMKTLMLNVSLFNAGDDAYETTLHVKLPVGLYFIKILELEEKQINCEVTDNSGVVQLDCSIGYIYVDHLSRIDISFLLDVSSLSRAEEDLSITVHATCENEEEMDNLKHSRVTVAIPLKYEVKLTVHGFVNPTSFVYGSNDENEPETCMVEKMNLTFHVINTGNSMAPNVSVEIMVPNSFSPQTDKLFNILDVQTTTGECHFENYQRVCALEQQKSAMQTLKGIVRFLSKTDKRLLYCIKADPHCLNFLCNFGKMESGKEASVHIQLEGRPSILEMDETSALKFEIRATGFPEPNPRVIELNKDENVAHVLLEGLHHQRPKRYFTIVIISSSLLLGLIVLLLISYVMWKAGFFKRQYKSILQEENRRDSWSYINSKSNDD
Sequence of α4β7 (P26010 20-798): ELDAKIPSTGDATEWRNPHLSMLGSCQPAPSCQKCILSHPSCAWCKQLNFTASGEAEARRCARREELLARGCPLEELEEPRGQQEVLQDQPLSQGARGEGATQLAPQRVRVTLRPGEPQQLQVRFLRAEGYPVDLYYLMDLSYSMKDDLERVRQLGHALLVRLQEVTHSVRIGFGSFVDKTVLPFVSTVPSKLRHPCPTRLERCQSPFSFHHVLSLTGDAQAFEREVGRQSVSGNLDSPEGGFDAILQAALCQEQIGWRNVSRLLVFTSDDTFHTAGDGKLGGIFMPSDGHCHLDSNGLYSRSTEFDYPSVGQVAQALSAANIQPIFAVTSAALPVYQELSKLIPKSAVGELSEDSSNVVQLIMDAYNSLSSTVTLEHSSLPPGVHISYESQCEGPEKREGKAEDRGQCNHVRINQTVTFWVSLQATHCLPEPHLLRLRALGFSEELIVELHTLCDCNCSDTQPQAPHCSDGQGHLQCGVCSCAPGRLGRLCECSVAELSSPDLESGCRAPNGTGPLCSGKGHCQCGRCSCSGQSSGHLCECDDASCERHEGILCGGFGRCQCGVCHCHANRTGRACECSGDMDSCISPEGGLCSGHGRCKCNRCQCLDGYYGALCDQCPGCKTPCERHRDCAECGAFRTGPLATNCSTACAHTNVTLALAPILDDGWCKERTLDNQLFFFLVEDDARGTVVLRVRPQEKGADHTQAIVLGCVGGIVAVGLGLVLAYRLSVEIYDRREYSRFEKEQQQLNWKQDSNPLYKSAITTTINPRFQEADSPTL

SMILES	IC50 [1, 4] [nM]	half-life at 22 μM [2, 5] [h]	IC50 [3, 6] [nM]	IC50 [1, 7] [nM]	half-life at 22 μM [2, 8] [h]	IC50 [3, 9] [nM]
CC(=O)N[C@@H]1C(=O)N(C)[C@@H](CCCNC(=N)N)C(=O)N[C@@H](CO)C(=O)N[C@@H](CC(=O)O)C(=O)N[C@@H]([C@@H](C)O)C(=O)N[C@@H](CC(C)C)C(=O)N[C@H](C(=O)N[C@@H](Cc2c[nH]c3ccccc23)C(=O)N[C@H](CCC(=O)O)C(=O)N[C@H](CCCCNC(=O)COCC(=O)NCCCC[C@@H](NC(=O)[C@@H](CCC(=O)O)NC(=O)[C@H](Cc2c[nH]c3ccccc23)NC(=O)[C@H]2NC(=O)[C@H](CC(C)C)NC(=O)[C@H]([C@@H](C)O)NC(=O)[C@H](CC(=O)O)NC(=O)[C@H](CO)NC(=O)[C@H](CCCNC(=N)N)N(C)C(=O)[C@@H](NC(C)=O)C(C)(C)SSC2(C)C)C(N)=O)C(N)=O)C(C)(C)SSC1(C)C [compound 68] (I: Ac-[Pen][NMeR]SDTL[Pen]W[dE][dK]-NH2 / II: Ac-[Pen][NMeR]SDTL[Pen]W[dE][dK]-NH2; disulfide I:1-I:7, II:1-II:7; linker I:10-II:10 via Diglycolyl)	25 to 50	> 5	500 to 1000			
CC(=O)N[C@@H]1C(=O)N(C)[C@@H](CCCNC(=N)N)C(=O)N[C@@H](CO)C(=O)N[C@@H](CC(=O)O)C(=O)N[C@@H]([C@@H](C)O)C(=O)N[C@@H](CC(C)C)C(=O)N[C@H](C(=O)N[C@@H](Cc2ccc(C(=O)O)cc2)C(=O)N[C@@H](CCC(=O)O)CC(=O)N(C)[C@@H](CCCCNC(=O)COCC(=O)NCCCC[C@@H](C(N)=O)N(C)C(=O)C[C@H](CCC(=O)O)NC(=O)[C@H](Cc2ccc(C(=O)O)cc2)NC(=O)[C@H]2NC(=O)[C@H](CC(C)C)NC(=O)[C@H]([C@@H](C)O)NC(=O)[C@H](CC(=O)O)NC(=O)[C@H](CO)NC(=O)[C@H](CCCNC(=N)N)N(C)C(=O)[C@@H](NC(C)=O)C(C)(C)SSC2(C)C)C(N)=O)C(C)(C)SSC1(C)C [compound 148] (I: Ac-[Pen][NMeR]SDTL[Pen][Phe(4-COOH)][β3hE][NMeK]-NH2 / II: Ac-[Pen][NMeR]SDTL[Pen][Phe(4-COOH)][β3hE][NMeK]-NH2; disulfide I:1-I:7, II:1-II:7; linker I:10-II:10 via Diglycolyl)	< 10	> 5	100 to 500			
CC(=O)N[C@@H]1C(=O)N(C)[C@@H](CCCNC(=N)N)C(=O)N[C@@H](CO)C(=O)N[C@@H](CC(=O)O)C(=O)N[C@@H]([C@@H](C)O)C(=O)N[C@@H](CC(C)C)C(=O)N[C@H](C(=O)N[C@@H](Cc2c[nH]c3ccccc23)C(=O)N[C@@H](CCC(=O)O)C(=O)N[C@H](CCCCNC(=O)COCC(=O)NCCCC[C@@H](NC(=O)[C@H](CCC(=O)O)NC(=O)[C@H](Cc2c[nH]c3ccccc23)NC(=O)[C@H]2NC(=O)[C@H](CC(C)C)NC(=O)[C@H]([C@@H](C)O)NC(=O)[C@H](CC(=O)O)NC(=O)[C@H](CO)NC(=O)[C@H](CCCNC(=N)N)N(C)C(=O)[C@@H](NC(C)=O)C(C)(C)SSC2(C)C)C(N)=O)C(N)=O)C(C)(C)SSC1(C)C [compound 217, (Ac-Pen-N-Me-R-S-D-T-L-Pen-W-E-k-NH2)2-DIG] (I: Ac-[Pen][NMeR]SDTL[Pen]WE[dK]-NH2 / II: Ac-[Pen][NMeR]SDTL[Pen]WE[dK]-NH2; disulfide I:1-I:7, II:1-II:7 (inferred); linker I:10-II:10 via Diglycolyl (inferred))				3.2	2.02	315
CC(=O)N[C@@H]1C(=O)N(C)[C@@H](CCCNC(=N)N)C(=O)N[C@@H](CO)C(=O)N[C@@H](CC(=O)O)C(=O)N[C@@H]([C@@H](C)O)C(=O)N[C@@H](CC(C)C)C(=O)N[C@H](C(=O)N[C@@H](Cc2ccc(C(=O)O)cc2)C(=O)N[C@@H](CCC(=O)O)C(=O)N(C)[C@@H](CCCCNC(=O)COCC(=O)NCCCC[C@@H](C(N)=O)N(C)C(=O)[C@H](CCC(=O)O)NC(=O)[C@H](Cc2ccc(C(=O)O)cc2)NC(=O)[C@H]2NC(=O)[C@H](CC(C)C)NC(=O)[C@H]([C@@H](C)O)NC(=O)[C@H](CC(=O)O)NC(=O)[C@H](CO)NC(=O)[C@H](CCCNC(=N)N)N(C)C(=O)[C@@H](NC(C)=O)C(C)(C)SSC2(C)C)C(N)=O)C(C)(C)SSC1(C)C [compound 147] (I: Ac-[Pen][NMeR]SDTL[Pen][Phe(4-COOH)]E[NMeK]-NH2 / II: Ac-[Pen][NMeR]SDTL[Pen][Phe(4-COOH)]E[NMeK]-NH2; disulfide I:1-I:7, II:1-II:7; linker I:10-II:10 via Diglycolyl)	< 10	> 5	100 to 500			
CC(=O)N[C@H]1CSSC[C@@H](C(N)=O)NC(=O)[C@H](CC(C)C)NC(=O)[C@H]([C@@H](C)O)NC(=O)[C@H](CC(=O)O)NC(=O)[C@H](CO)NC(=O)[C@H](CCCNC(=N)N)NC1=O [compound 195, Ac-C-R-S-D-T-L-C-NH2] (Ac-CRSDTLC-NH2; disulfide 1-7)				1220	< 0.0167	2880
CC(=O)N[C@H]1CSSC[C@@H](C(=O)NCC(=O)N[C@@H](CCC(=O)O)C(=O)N[C@@H](CCCCN)C(N)=O)NC(=O)[C@H](CC(C)C)NC(=O)[C@H]([C@@H](C)O)NC(=O)[C@H](CC(=O)O)NC(=O)[C@H](CO)NC(=O)[C@H](CCCNC(=N)N)NC1=O [compound 196, Ac-C-R-S-D-T-L-C-G-E-K-NH2] (Ac-CRSDTLCGEK-NH2; disulfide 1-7)				6660	< 0.0667	4810
CC(=O)N[C@@H]1C(=O)N(C)[C@@H](CCCNC(=N)N)C(=O)N[C@@H](CO)C(=O)N[C@@H](CC(=O)O)C(=O)N[C@@H]([C@@H](C)O)C(=O)N[C@@H](CC(C)C)C(=O)N[C@H](C(=O)N[C@@H](Cc2c[nH]c3ccccc23)C(=O)N[C@H](CCC(=O)O)C(=O)N[C@H](CCCCNC(=O)COCC(=O)NCCCC[C@@H](NC(=O)[C@@H](CCC(=O)O)NC(=O)[C@H](Cc2c[nH]c3ccccc23)NC(=O)[C@H]2NC(=O)[C@H](CC(C)C)NC(=O)[C@H]([C@@H](C)O)NC(=O)[C@H](CC(=O)O)NC(=O)[C@H](CO)NC(=O)[C@H](CCCNC(=N)N)N(C)C(=O)[C@@H](NC(C)=O)C(C)(C)SSC2(C)C)C(N)=O)C(N)=O)C(C)(C)SSC1(C)C [compound 211, (Ac-Pen-N-Me-R-S-D-T-L-Pen-W-e-k-NH2)2-DIG] (I: Ac-[Pen][NMeR]SDTL[Pen]W[dE][dK]-NH2 / II: Ac-[Pen][NMeR]SDTL[Pen]W[dE][dK]-NH2; disulfide I:1-I:7, II:1-II:7 (inferred); linker I:10-II:10 via Diglycolyl (inferred))				22	> 5	302
CC(=O)N[C@@H]1C(=O)N(C)[C@@H](CCCNC(=N)N)C(=O)N[C@@H](CO)C(=O)N[C@@H](CC(=O)O)C(=O)N[C@@H]([C@@H](C)O)C(=O)N[C@@H](CC(C)C)C(=O)N[C@H](C(=O)N[C@@H](Cc2cccc3ccccc23)C(=O)N[C@@H](CCC(=O)O)C(=O)N(C)[C@H](CCCCNC(=O)COCC(=O)NCCCC[C@H](C(N)=O)N(C)C(=O)[C@H](CCC(=O)O)NC(=O)[C@H](Cc2cccc3ccccc23)NC(=O)[C@H]2NC(=O)[C@H](CC(C)C)NC(=O)[C@H]([C@@H](C)O)NC(=O)[C@H](CC(=O)O)NC(=O)[C@H](CO)NC(=O)[C@H](CCCNC(=N)N)N(C)C(=O)[C@@H](NC(C)=O)C(C)(C)SSC2(C)C)C(N)=O)C(C)(C)SSC1(C)C [compound 44] (I: Ac-[Pen][NMeR]SDTL[Pen][1Nal]E[dNMeK]-NH2 / II: Ac-[Pen][NMeR]SDTL[Pen][1Nal]E[dNMeK]-NH2; disulfide I:1-I:7, II:1-II:7; linker I:10-II:10 via Diglycolyl)	< 10	> 3	100 to 500			
